The results in this text go back to US5380729A, “12-hetero substituted 6,11-ethano-6,11-dihydrobenzo (b) quinolizinium salts and compositions and method of use thereof” (Sterling Winthrop Inc., priority 1993, dated 1995).

Data set [1] has as its target PCP recognition sites. The data set can be described thus: [3H]TCP Radioreceptor Assay (internal screen). The format is binding, rat (male Sprague-Dawley. Particulars: rat whole brain membranes, room temperature, 25 min; for Ki: ~1 nM [3H]TCP. As for the experimental part:
[^3 H]TCP Radioreceptor Assay (internal screen)
[^3 H]TCP binding to PCP recognition sites was performed as described by Vignon et al. Brain Research 1983, 280, 194°197. Male Sprague-Dawley rats were sacrificed by decapitation, and whole brains were homogenized in 10 volumes (wt/vol) of cold Tris-HCl buffer (50 mM, pH 7.7) using a Brinkmann Polytron (setting 6, 30 sec). The homogenate was centrifuged at 40,000×g for 10 min at 4° C. The supernatant was decanted, and the homogenization and centrifugation steps were repeated twice as described above. Following this, the pellet was resuspended in Tris-HCl (5 mM, pH 7.7) at a tissue concentration of 0.5°0.75 g/ml, and one ml aliquots were frozen at -70° C. until use. The binding characteristics for PCP recognition sites were not altered by the freezing of membrane suspensions.
On the day of the assay, membrane aliquots were thawed, resuspended in fresh 5 mM Tris-HCl buffer at a tissue concentration of 1 mg/ml, and stored on ice until use. Each assay tube contained 100 μl of [^3 H]TCP at a final concentration of approximately 1 nM, 100 μl of various concentrations of the compounds of interest, 500 μl of the tissue suspension and 300 of buffer to a final assay volume of 1 ml and a final protein concentration of 0.5 mg/tube. Non-specific binding was defined by addition of a final concentration of 100 μM PCP to blank tubes. All tubes were incubated at room temperature for 25 min before termination of the reaction by rapid filtration over Whatman GF/B glass fiber filters that had been presoaked in a solution of 0.5% polyethylenimine for at least 1 hr prior to use. Filters were washed with three 4 ml volumes of cold Tris buffer. Following addition of scintillation cocktail, the amount of bound radioactivity was determined by liquid scintillation spectrometry using a Beckman LS 5000TA liquid scintillation counter with an efficiency for tritium of approximately 55% . Inhibition constants (Ki values) were calculated using the EBDA/LIGAND program (McPherson, J. Pharmacol. Meth. 1985, 14, 213-228), purchased from Elsevier/Biosoft, Inc. Results are reported as Ki values or as a percent (%) inhibition of binding at 10

In data set [2] the test system is PCP recognition sites. The data set can be described thus: [3H]TCP Radioreceptor Assay (external screen). The format is binding, rat (whole rat forebrain membranes). Particulars: @ 10 μM; rat forebrain membranes; 25° C., 60 minutes. As for the experimental part: Representative compounds of the invention were also tested in an external [^3 H]TCP radioreceptor assay using the following protocol:
[^3 H]TCP Radioreceptor Assay (external screen)
A procedure similar to that described above for the [^3 H]TCP radioreceptor assay (internal screen) was utilized except that the whole rat forebrain membranes were incubated at 25° C. for 60 minutes rather than at room temperature for 25 minutes, before termination of the reaction. The results are reported as a percent (%) inhibition of binding at 10 μM.

In data set [3] the test system is NMDA-induced neurotoxicity in cultured cortical neurons. Nature of the data set: Antagonism of NMDA-induced neurotoxicity in cultured neurons (LDH release). It counts as cell-based, mouse (Swiss-Webster). Particulars: 500 μM NMDA, 30 minutes, LDH activity at 24 hours, mouse cortical neurons. On the procedure: Antagonism of NMDA-induced Neurotoxicityin Cultured Neurons
Preparation of Cultured Cortical Neurons
Pregnant, Swiss-Webster mice were obtained from Taconic Farms (Germantown, New York) and sacrificed 16 days post conception. Fetuses were removed and placed in a sterile dish containing Hank's balanced salt solution (HBSS), pH 7.4. Brain cortices were dissected, meninges were removed, the tissue was minced and placed into a solution of HBSS containing 0.25% (w/v) trypsin at 37° C. for 15 minutes. Tissue was then triturated with a sterile pasteur pipet, diluted with minimal essential media (Gibco 330-1430), pH 7.4, supplemented with 10% horse serum, 10% fetal calf serum, 2 mM 1-glutamine, 21 mM d-glucose, 2.2 g/L sodium bicarbonate, 1000 u/ml penicillin, and 1,000 μg/ml streptomycin. Cells were plated onto Falcon primaria 96 well plates at a final density of 50,000 cells/well and incubated at 37° C. in the presence of 5% (v/v) carbon dioxide. After 5 days, plating media was replaced with maintenance media containing minimal essential media (Gibco 330- 1430), pH 7.4, supplemented with 10% horse serum, 10% 1-glutamine, 21 mM d-glucose, 2.2 g/l sodium bicarbonate,1,000 U/ml penicillin, 1,000 μg/ml streptomycin, and 10 μM cytosine arabinoside. On days 7 and 10, media was replaced with maintenance media as above lacking the cytosine arabinoside. Experiments were conducted on day 13.
Neuroprotection Assessment
Day 13 cultured cortical neurons were washed twice with minimal essential media, pH 7.4 and then exposed for 30 minutes to 500 μM N-methyl-D-aspartic acid (NMDA) with or without varying concentrations of test agents. Dizocilpine (MK-801) at a final concentration of 10 μM MK-801 was routinely included as a positive control. MK-801 and test agents were prepared in minimal essential media supplemented with 21 mM d-glucose and 2.2 g/L sodium bicarbonate (MEM). After 30 minutes, media was replaced with MEM alone. Exposure of neurons to test agents was limited to the NMDA treatment period. Twenty-four hours after removal of NMDA, an aliquot of media from each well was removed for assessment of cell injury by determining lactate dehydrogenase (LDH) activity by. the method of Wroblewski and LaDue Proc. Soc. Exp. Biol. Med. 1955, 90, 210-213. The results are expressed as an IC50 (in nM) value (concentration causing 50% inhibition) for the antagonism of NMDA--inducedneurotoxicity.

Data set [4] is described as follows: Comparison of separate enantiomers with the racemate (test not specified). Conditions: (-)-enantiomer vs (+)-enantiomer or racemate.

For orientation: Ki means a measure of affinity in units of concentration, obtained from inhibition or displacement. Low readings indicate tighter binding, high ones weaker binding. Regarding `CCOC1(OCC)C2c3c(C)ccc(C)c3C(C1C)[n+]1ccccc12.[O-][Cl+3]([O-])([O-])[O-]` (stereo not drawn) [63(e), 7,10-Dimethyl-12,12-diethoxy-13-methyl-6,11-ethano-6,11-dihydrobenzo[b]quinolizinium perchlorate], the Ki at PCP recognition sites [1] was found to be 255 nM. The “Percent inhibition, [3H]TCP (external screen)” value in the data set on PCP recognition sites [2] is 65%.
For the compound `CCOC1(OCC)CC2c3ccc(C)cc3C1c1cccc[n+]12.[O-][Cl+3]([O-])([O-])[O-]` (stereo not drawn) [63(g), 9-Methyl-12,12-diethoxy-6,11-ethano-6,11-dihydrobenzo[b]quinolizinium perchlorate], the “Percent inhibition, [3H]TCP (internal screen)” value in the data set on PCP recognition sites [1] (@ 10 μM) is given as 68%. For the same compound, the “Percent inhibition, [3H]TCP (external screen)” value in the data set on PCP recognition sites [2] is on record as 0%.
In the case of `CCOC1(OCC)CC2c3c(C)ccc(C)c3C1c1cccc[n+]12.[O-][Cl+3]([O-])([O-])[O-]` (stereo not drawn) [63(h), 7,10-Dimethyl-12,12-diethoxy-6,11-ethano-6,11-dihydrobenzo[b]quinolizinium perchlorate], in the data set on PCP recognition sites [2], the “Percent inhibition, [3H]TCP (external screen)” value came to 52%.
The term IC50 denotes the concentration at which inhibition is half-maximal. Regarding `CCOC1(OCC)C2c3cc(OC)ccc3C([n+]3ccccc32)C1(C)C` (single isomer, unassigned) [20(a), 9-methoxy-12,12-diethoxy-13,13-dimethyl-6,11-ethano-6,11-dihydrobenzo[b]quinolizinium hexafluorophosphate], half-maximal inhibition in data set [3] (IC50) required 157 nM. The compound also returned a Ki at PCP recognition sites [1] of 3.52 nM.
Consider `CCOC1(OCC)C2c3cc(Br)ccc3C([n+]3ccccc32)C1(C)C.[O-][Cl+3]([O-])([O-])[O-]` (stereo not drawn) [Example 35, 6,11-ethano-12,12-diethoxy-13,13-dimethyl-9-bromo-6,11-dihydrobenzo[b]quinolizinium perchlorate], for which the IC50 in data set [3] was determined as 173 nM. This compound came in with a Ki on PCP recognition sites [1] of 61.5 nM.
Consider `CCOC1(OCC)C2c3ccccc3C([n+]3ccccc32)C1(C)C` (single isomer, unassigned; (-)) [Example 12(c), (-)-12,12-diethoxy-13,13-dimethyl-6,11-ethano-6,11-dihydrobenzo[b]quinolizinium chloride. 1/2-7/4 hydrate], for which the IC50 in data set [3] was 26 nM. For the same compound, in data set [4], the “potency compared to the (+)-enantiomer (Example 13(c)) or the racemate (Example 2)” value is recorded as “more potent” and the “side effects compared to the (+)-enantiomer (Example 13(c)) or the racemate (Example 2)” value was “fewer side effects”. In addition, the Ki at PCP recognition sites [1] (hydrate) is 4.03 nM.
As for `CCOC1(OCC)CC2c3ccccc3C1c1cccc[n+]12` (stereo not drawn) [28(b), 6,11-ethano-12,12-diethoxy-6,11-dihydrobenzo[b]quinolizinium chloride], half-maximal inhibition in data set [3] (Cortical neurone) (IC50) required 95500 nM. The compound also came in with a Ki at PCP recognition sites [1] of 4270 nM.
On PCP recognition sites [1], `CCOC1(OCC)CC2c3cc(C)c(C)cc3C1c1cccc[n+]12.[O-][Cl+3]([O-])([O-])[O-]` (stereo not drawn) [63(i), 8,9-Dimethyl-12,12-diethoxy-6,11-ethano-6,11-dihydrobenzo[b]quinolizinium perchlorate] came in with a Ki of 2260 nM. Besides, the “Percent inhibition, [3H]TCP (external screen)” value in the data set with PCP recognition sites [2] turned out to be 35%.
As to `CCOC1(OCC)CC2c3c(C)cccc3C1c1cccc[n+]12.[O-][Cl+3]([O-])([O-])[O-]` (stereo not drawn) [63(f), 7-Methyl-12,12-diethoxy-6,11-ethano-6,11-dihydrobenzo[b]quinolizinium perchlorate], at PCP recognition sites [1], affinity was put at a Ki of 7430 nM. Also, the “Percent inhibition, [3H]TCP (external screen)” value with PCP recognition sites [2] worked out at 34%.
For `CCOC1(OCC)C2c3ccccc3C([n+]3ccccc32)C1(C)C` (single isomer, unassigned) [Example 13(c), 12,12-diethoxy-13,13-dimethyl-6,11-ethano-6,11-dihydrobenzo[b]quinolizinium chloride-1/2-3/4 hydrate], in data set [3] (Cortical neurone), the IC50 was 50 nM. Besides, the affinity at PCP recognition sites [1] (hydrate), expressed as Ki, was 11 nM.
In data set [3], `CCCOC1(OCCC)C2c3ccccc3C([n+]3ccccc32)C1(C)C.[O-][Cl+3]([O-])([O-])[O-]` (stereo not drawn) [Example 39, 6,11-ethano-12,12-dipropoxy-13,13-dimethyl-6,11-dihydrobenzo[b]quinolizinium perchlorate] gave an IC50 of 85 nM. On PCP recognition sites [1], the Ki was 11.5 nM.
In turn, `CCOC1(OCC)CC2c3ccccc3C1(C)c1cccc[n+]12.[O-][Cl+3]([O-])([O-])[O-]` (stereo not drawn) [63(c), 11-Methyl-12,12-diethoxy-6,11-ethano-6,11-dihydrobenzo[b]quinolizinium perchlorate] showed a Ki on PCP recognition sites [1] of 9300 nM. In addition, the “Percent inhibition, [3H]TCP (external screen)” value with PCP recognition sites [2] was determined as 0%.
In data set [3] (Cortical neurone), `CCOC1(OCC)C2c3c(OC)cccc3C([n+]3ccccc32)C1(C)C` (stereo not drawn) [19(d), 10-methoxy-12,12-diethoxy-13,13-dimethyl-6,11-ethano-6,11-dihydrobenzo[b]quinolizinium chloride·3/2 hydrate] came in with an IC50 of 21.8 nM. Besides, the Ki on PCP recognition sites [1] (hydrate) was determined as 10.4 nM.
Turning to `CCOC1(OCC)C2c3ccccc3C(C1Cl)[n+]1ccccc12` (single isomer, unassigned) [Example 41, 6,11-ethano-12,12-diethoxy-13-chloro-6,11-dihydrobenzo[b]quinolizinium bromide], in data set [3] (Cortical neurone), the IC50 was found to be 445 nM. The compound also showed a Ki on PCP recognition sites [1] of 67 nM.
In the same order, the values of `CCOC1(OCC)C2c3ccccc3C([n+]3ccccc32)C1(C)C` (stereo not drawn) [Example 2, 12,12-diethoxy-13,13-dimethyl-6,11-ethano-6,11-dihydrobenzo[b]quinolizinium chloride-1/4 H2 O] are 30 to 50 nM and 5.3 nM.
In the case of `CCOC1(OCC)C2c3ccccc3C(C1C)[n+]1ccccc12.[O-][Cl+3]([O-])([O-])[O-]` (stereo not drawn) [Example 38, 6,11-ethano-12,12-diethoxy-13-methyl-6,11-dihydrobenzo[b]quinolizinium perchlorate], half-maximal inhibition in data set [3] (IC50) was put at 1160 nM. Moreover, the Ki at PCP recognition sites [1] was found to be 33.8 nM.
